For 26 molecules, T/C results are on record in PubChem BioAssay AID330 (DTP/NCI, 2004).

Molecules are shown by their SMILES. “And” between values parts separate entries of the source, which are not always exact repeats. Equal values may be shown once. Inconclusive results and toxic doses are left out. Peptide text beside a SMILES is read from it. * marks the point of attachment. Boc = CC(C)(C)OC(=O)*; NHNH2 = NN*

The test has as its system P388 leukemia ip, CD2F1 mice, survival T/C. The experiment in a line: NCI In Vivo Anticancer Drug Screen. Data for tumor model P388 Leukemia (intraperitoneal) in CD2F1 (CDF1) mice. The note with it: endpoint: median survival time, higher = longer survival. In a few lines: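 Mice carrying the transplanted tumor received test compound or vehicle. Survival was recorded in each group, and the value is the treated-group measurement divided by that of the vehicle-treated control group.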

The mark [1] stands for this setting: dose: 50.0 mg/kg/injection, schedule: Q01DX009 (ip), vehicle: saline with Tween-80.
The mark [2] stands for this setting: dose: 50.0 mg/kg/injection, schedule: Q01DX009 (ip), vehicle: saline.
Setting [3] is: dose: 100.0 mg/kg/injection, schedule: Q01DX009 (ip), vehicle: saline with Tween-80.
The mark [4] stands for this setting: dose: 100.0 mg/kg/injection, schedule: Q01DX009 (ip), vehicle: saline.
Where [5] appears, read: dose: 200.0 mg/kg/injection, schedule: Q01DX009 (ip), vehicle: saline with Tween-80.
The mark [6] stands for this setting: dose: 200.0 mg/kg/injection, schedule: Q01DX009 (ip), vehicle: saline.
The mark [7] stands for this setting: dose: 100.0 mg/kg/injection, schedule: Q04DX003 (ip), vehicle: saline.
Setting [8] is: dose: 200.0 mg/kg/injection, schedule: Q04DX003 (ip), vehicle: saline.
The mark [9] stands for this setting: dose: 50.0 mg/kg/injection, schedule: Q01DX009 (ip), vehicle: Klucel (hydroxypropylcellulose) (HPC).
The mark [10] stands for this setting: dose: 100.0 mg/kg/injection, schedule: Q01DX009 (ip), vehicle: Klucel (hydroxypropylcellulose) (HPC).
[11] abbreviates: dose: 200.0 mg/kg/injection, schedule: Q01DX009 (ip), vehicle: Klucel (hydroxypropylcellulose) (HPC).
Setting [12] is: dose: 6.25 mg/kg/injection, schedule: Q01DX005 (ip), vehicle: saline.
Where [13] appears, read: dose: 12.5 mg/kg/injection, schedule: Q01DX005 (ip), vehicle: saline.
Where [14] appears, read: dose: 100.0 mg/kg/injection, schedule: Q01DX001 (ip), vehicle: saline with Tween-80.
[15] abbreviates: dose: 200.0 mg/kg/injection, schedule: Q01DX001 (ip), vehicle: saline with Tween-80.
The mark [16] stands for this setting: dose: 400.0 mg/kg/injection, schedule: Q01DX001 (ip), vehicle: saline with Tween-80.
[17] abbreviates: dose: 50.0 mg/kg/injection, schedule: Q01DX005 (ip), vehicle: saline.
[18] abbreviates: dose: 100.0 mg/kg/injection, schedule: Q01DX005 (ip), vehicle: saline.
Setting [19] is: dose: 200.0 mg/kg/injection, schedule: Q01DX005 (ip), vehicle: saline.

For `O=C(CN1CCCCC1)Nc1ccc(Br)cc1`, the T/C runs as follows: under setting [1], 106 % of control; under setting [2], 103 % of control and 113 % of control; under setting [3], 100 % of control; under setting [4], 105 % of control; under setting [5], 111 % of control; under setting [6], 120 % of control. The T/C (dose: 400.0 mg/kg/injection, schedule: Q01DX009 (ip), vehicle: saline with Tween-80) is 102 % of control.
For `Cc1ccc(S(=O)(=O)N2CCCN(S(=O)(=O)c3ccc(C)cc3)COC2)cc1`, the T/C was 102 % of control (dose: 60.0 mg/kg/injection, schedule: Q01DX005 (ip), vehicle: Klucel (hydroxypropylcellulose) (HPC)); 101 % of control (dose: 120.0 mg/kg/injection, schedule: Q01DX005 (ip), vehicle: Klucel (hydroxypropylcellulose) (HPC)); 102 % of control (dose: 240.0 mg/kg/injection, schedule: Q01DX005 (ip), vehicle: Klucel (hydroxypropylcellulose) (HPC)).
In the case of `CC(=NC1CCCCC1)c1c(O)oc(C=Nc2ccccc2)c1O`, the T/C is, setting by setting: (dose: 50.0 mg/kg/injection, schedule: Q01DX005 (ip), vehicle: saline with Tween-80) 100 % of control; (dose: 100.0 mg/kg/injection, schedule: Q01DX005 (ip), vehicle: saline with Tween-80) 105 % of control; (dose: 200.0 mg/kg/injection, schedule: Q01DX005 (ip), vehicle: saline with Tween-80) 100 % of control.
In the case of `NC(=O)CC[n+]1cccc(C(=O)O)c1`, the T/C is 100 % of control under setting [7]; 95 % of control under setting [8]; 95 % of control (dose: 400.0 mg/kg/injection, schedule: Q04DX003 (ip), vehicle: saline).
Regarding `O=c1oc2c(Br)cccc2cc1-c1ccc(Br)c2ccccc12`, the T/C runs as follows: under setting [9], 101 % of control; under setting [10], 97 % of control; under setting [11], 93 % of control.
`CC(C)(C)[NH2+][B-](F)(F)F`: the T/C reads like this: under setting [12], 94 % of control; under setting [13], 103 % of control.
With `O=C1C=CC(CCCCCn2ccc(=O)[nH]c2=O)C(=O)N1` (stereo unspecified), the T/C is 90 % of control (dose: 100.0 mg/kg/injection, schedule: Q01DX001 (ip), vehicle: saline); 100 % of control (dose: 200.0 mg/kg/injection, schedule: Q01DX001 (ip), vehicle: saline); 100 % of control (dose: 400.0 mg/kg/injection, schedule: Q01DX001 (ip), vehicle: saline).
Consider `C[C@]12CCC(=O)N[C@@H]1CC[C@@H]1[C@@H]2CC[C@]2(C)[C@@H](OC(=O)COc3ccc(N(CCCl)CCCl)cc3)CC[C@@H]12`, for which the T/C (dose: 2.5 mg/kg/injection, schedule: Q01DX005 (ip), vehicle: saline with Tween-80) is 116 % of control; the T/C (dose: 10.0 mg/kg/injection, schedule: Q01DX005 (ip), vehicle: saline with Tween-80) was 155 % of control; the T/C (dose: 15.0 mg/kg/injection, schedule: Q01DX005 (ip), vehicle: saline with Tween-80) was 181 % of control; the T/C (dose: 20.0 mg/kg/injection, schedule: Q01DX005 (ip), vehicle: saline with Tween-80) is 192 % of control; the T/C (dose: 30.0 mg/kg/injection, schedule: Q01DX005 (ip), vehicle: saline with Tween-80) is 220 % of control.
Regarding `CCCCNC1Cc2ccccc2CC1O` (stereo unspecified), the T/C was 100 % of control and 107 % of control (dose: 0.79 mg/kg/injection, schedule: Q01DX005 (ip), vehicle: saline); 100 % of control and 104 % of control (dose: 1.56 mg/kg/injection, schedule: Q01DX005 (ip), vehicle: saline); 101 % of control and 105 % of control and 115 % of control (dose: 3.12 mg/kg/injection, schedule: Q01DX005 (ip), vehicle: saline); 100 % of control and 108 % of control and 121 % of control under setting [12]; 104 % of control under setting [13].
As to `CN(C)CCC(/C=C/c1ccco1)=N\NC(=S)Nc1ccc(Cl)cc1`, the T/C was 97 % of control under setting [14], 101 % of control under setting [15] and 103 % of control under setting [16].
For the molecule `Cc1ccc(S(=O)(=O)N2CC3CC(C2)C(=O)NC3=O)cc1`, the T/C by setting is: under setting [9], 104 % of control; under setting [10], 107 % of control; under setting [11], 92 % of control.
In the case of `CN=C(C)NO`, the T/C under setting [17] is 106 % of control, the T/C under setting [18] is 104 % of control and the T/C under setting [19] is 99 % of control.
For `O=c1[nH]cc(CN(CCO)CCO)c(=O)[nH]1` the same measures were 106 % of control, 105 % of control and 99 % of control.
As to `CSCCC(NC(=O)C(Cc1c[nH]c2ccccc12)NC(=O)OC(C)(C)C)C(=O)NN` (stereo not drawn) (Boc-Trp-Met-NHNH2; configuration not given here), the T/C runs as follows: under setting [9], 104 % of control and 105 % of control; under setting [10], 118 % of control; under setting [11], 119 % of control.
Regarding `CCC(=O)NS(=O)(=O)c1cccnc1Nc1c(Cl)cccc1Cl`, the T/C by setting is: under setting [2], 96 % of control; under setting [4], 96 % of control; under setting [6], 100 % of control.
For `COc1ccc(-c2cnc(=O)[nH]c2N)cc1`, the T/C is, setting by setting: (dose: 60.0 mg/kg/injection, schedule: Q01DX005 (ip), vehicle: suspension in saline) 99 % of control; (dose: 120.0 mg/kg/injection, schedule: Q01DX005 (ip), vehicle: suspension in saline) 97 % of control; (dose: 240.0 mg/kg/injection, schedule: Q01DX005 (ip), vehicle: suspension in saline) 105 % of control.
Consider `CC[N+]12CC=C(CO)C1C(O)CC2` (stereo unspecified), for which the T/C runs as follows: (dose: 60.0 mg/kg/injection, schedule: Q01DX005 (ip), vehicle: saline) 97 % of control; (dose: 120.0 mg/kg/injection, schedule: Q01DX005 (ip), vehicle: saline) 95 % of control; (dose: 240.0 mg/kg/injection, schedule: Q01DX005 (ip), vehicle: saline) 106 % of control.
Regarding `CCCCCCCC[N+](C)(CCCCCCCC)CCCCCCCC`, the T/C was 104 % of control (dose: 1.0 mg/kg/injection, schedule: Q04DX003 (ip), vehicle: saline); 104 % of control (dose: 2.0 mg/kg/injection, schedule: Q04DX003 (ip), vehicle: saline); 108 % of control (dose: 4.0 mg/kg/injection, schedule: Q04DX003 (ip), vehicle: saline).
As to `Cc1ccc(-c2cssc2=S)cc1`, the T/C reads like this: (dose: 25.0 mg/kg/injection, schedule: Q01DX009 (ip), vehicle: saline with Tween-80) 96 % of control; under setting [1], 95 % of control; under setting [3], 92 % of control; under setting [5], 90 % of control.
Take `CNCc1cccc2ccnc(C)c12`: the T/C is, setting by setting: under setting [14], 100 % of control; under setting [15], 99 % of control; under setting [16], 96 % of control.
In the case of `COc1ccc(CCNC(=O)Cc2ccc3cc(OC)c(OC)cc3c2)cc1OC`, the T/C runs as follows: under setting [1], 120 % of control; under setting [3], 100 % of control; under setting [5], 90 % of control.
Take `O=C(O)C(=O)c1ccccc1`: the T/C was 100 % of control (dose: 50.0 mg/kg/injection, schedule: Q04DX003 (ip), vehicle: saline); 105 % of control under setting [7]; 100 % of control under setting [8].
For `CCOC(=O)COc1ccc(/C=C(\C)[N+](=O)[O-])c2ccccc12`, the T/C under setting [1] was 99 % of control, the T/C under setting [3] is 91 % of control and the T/C under setting [5] is 100 % of control.
Regarding `COC1CCC2(C)C(=CCC3C2CCC2(C)C(OCCOS(=O)(=O)c4ccc(C)cc4)CCC32)C1` (stereo unspecified), the T/C is, setting by setting: under setting [14], 101 % of control; under setting [15], 106 % of control; under setting [16], 100 % of control.
For the molecule `FC(F)(F)c1cccc(C(OCC2CO2)(C(F)(F)F)C(F)(F)F)c1` (stereo unspecified), the T/C was 99 % of control under setting [9], 96 % of control under setting [10] and 102 % of control under setting [11].
In the case of `CC(=O)OCN(C)C=O`, the T/C was 96 % of control (dose: 125.0 mg/kg/injection, schedule: Q01DX005 (ip), vehicle: water); 91 % of control (dose: 250.0 mg/kg/injection, schedule: Q01DX005 (ip), vehicle: water); 98 % of control (dose: 500.0 mg/kg/injection, schedule: Q01DX005 (ip), vehicle: water).
